Measured values as given in patent US20240368104A1, “Novel Dialkoxynaphtho[2,3-C]Furan-1(3H)-One Derivatives and Pharmaceutical Composition For Preventing or Treating Respiratory Disease or SARS-COV-2 Infection Disease, Comprising Same” (priority 2021, published 2024).
Like-named read-outs stand apart in the source and are kept apart here.

Columns and labels:
SARS-COV-2 = test: microbe, parasite or virus in culture; assay type: cell-based; design: SI (Selectivity Index, CC50/IC50): unit not given here; settings: for SI (Selectivity Index, CC50/IC50): SARS-COV-2, values >50 assumed to be 50; for IC50: read-out: SARS-COV-2 inhibition (IC50)
in vitro = settings: African green monkey
[1] = Severe acute respiratory syndrome coronavirus 2, Vero cells, 24 hours infection
[2] = Severe acute respiratory syndrome coronavirus 2, Vero, 24 h

SMILES	SI (Selectivity Index, CC50/IC50) (SARS-COV-2)	IC50 (SARS-COV-2; [1])	CC50 (in vitro)	IC50 (SARS-COV-2; [2])
COc1cc2cc(CO)c(C(=O)[O-])c(-c3cc4c(cc3O)OCO4)c2cc1OC.[Na+] [Example 212, 1-(6-hydroxybenzo[d][1,3]dioxol-5-yl)-3-(hydroxymethyl)-6,7-dimethoxy-2-naphthoate sodium (I)]	2.81	17.8 µM	> 50 µM	–
COc1cc2cc3c(c(-c4ccc(N(C)c5nnc(C)s5)nc4)c2cc1OC)C(=O)OC3 [Example 214, 6,7-dimethoxy-9-(6-(methyl(5-methyl-1,3,4-thiadiazol-2-yl)amino)pyridin-3-yl)naphtho[2,3-c]furan-1(3H)-one]	1.00	> 50 µM	> 50 µM	–
COc1cc2cc3c(c(-c4ccc(N(C)c5nc(SC)n(C)n5)nc4)c2cc1OC)C(=O)OC3.Cl [Example 215, 6,7-dimethoxy-9-(6-(methyl(1-methyl-5-(methylthio)-1H-1,2,4-triazol-3-yl)amino)pyridin-3-yl)naphtho[2,3-c]furan-1(3H)-one]	2.55	–	> 50 µM	19.6 µM
COc1cc2cc3c(c(-c4cnc(N(C)c5cccc(C(F)(F)F)c5)nc4)c2cc1OC)C(=O)OC3 [Example 216, 6,7-dimethoxy-9-(2-(methyl(3-(trifluoromethyl)phenyl)amino)pyrimidin-5-yl)naphtho[2,3-c]furan-1(3H)-one]	52.13	0.96 µM	> 50 µM	–
COc1cc2cc3c(c(-c4ccc(N(C)C)c([N+](=O)[O-])c4)c2cc1OC)C(=O)OC3.Cl [Example 217, 9-(4-(dimethylamino)-3-nitrophenyl)-6,7-dimethoxynaphtho[2,3-c]furan-1(3H)-one]	10.06	–	> 50 µM	4.97 µM
COc1cc2cc3c(c(-c4ccc(N(C)c5ccc(C#N)cc5)nc4)c2cc1OC)C(=O)OC3.Cl [Example 218, 4-((5-(6,7-dimethoxy-3-oxo-1,3-dihydronaphtho[2,3-c]furan-4-yl)pyridin-2-yl)(methyl)amino)benzonitrile]	65.75	–	> 50 µM	0.76 µM
COc1cc2cc3c(c(-c4ccc(N5CCOCC5)nn4)c2cc1OC)C(=O)OC3 [Example 219, 6,7-dimethoxy-9-(6-morpholinopyridazin-3-yl)naphtho[2,3-c]furan-1(3H)-one]	1.00	> 50 µM	> 50 µM	–
COc1cc2cc3c(c(-c4cnc5ccc(N6CCOCC6)nn45)c2cc1OC)C(=O)OC3 [Example 220, 6,7-dimethoxy-9-(6-morpholinoimidazo[1,2-b]pyridazin-3-yl)naphtho[2,3-c]furan-1(3H)-one]	1.00	> 50 µM	> 50 µM	–
COc1cc2cc3c(c(-c4ccc(N(C)c5ccccc5)nc4)c2cc1OC)C(=O)OC3 [Example 222, 6,7-dimethoxy-9-(6-(methyl(phenyl)amino)pyridin-3-yl)naphtho[2,3-c]furan-1(3H)-one]	162.21	0.31 µM	> 50 µM	–
COc1cc2cc3c(c(-c4ccc(-n5nc(N(C)C)nc5SC)nc4)c2cc1OC)C(=O)OC3.Cl [Example 223, 9-(6-(3-(dimethylamino)-5-(methylthio)-1H-1,2,4-triazol-1-yl)pyridin-3-yl)-6,7-dimethoxynaphtho[2,3-c]furan-1(3H)-one]	3.11	–	> 50 µM	16.1 µM
COc1cc2cc(CO)c(C(=O)Cl)c(-c3cc4c(cc3O)OCO4)c2cc1OC [Example 224, 1-(6-hydroxybenzo[d][1,3]dioxol-5-yl)-3-(hydroxymethyl)-6,7-dimethoxy-2-naphthoyl chloride]	2.63	1.9 µM	> 50 µM	–
COc1cc2cc3c(c(-c4ccc(N(C)c5nc6ccccc6s5)nc4)c2cc1OC)C(=O)OC3.Cl [Example 225, 9-(6-(benzo[d]thiazol-2-yl(methyl)amino)pyridin-3-yl)-6,7-dimethoxynaphtho[2,3-c]furan-1(3H)-one]	0.65	–	32.4 µM	> 50 µM
CCN(Cc1ccncc1)c1ccc(-c2c3c(cc4cc(OC)c(OC)cc24)COC3=O)cn1 [Example 226, 9-(6-(ethyl(pyridin-4-ylmethyl)amino)pyridin-3-yl)-6,7-dimethoxynaphtho[2,3-c]furan-1(3H)-one]	7.47	6.69 µM	> 50 µM	–
COc1cc2cc(CO)c(C(=O)NC(C)C)c(-c3cc4c(cc3O)OCO4)c2cc1OC [Example 228, 1-(6-hydroxybenzo[d][1,3]dioxol-5-yl)-3-(hydroxymethyl)-N-isopropyl-6,7-dimethoxy-2-naphthamide]	1.50	33.4 µM	> 50 µM	–
CNc1ccc(-c2c3c(cc4cc(OC)c(OC)cc24)COC3=O)cn1 [Example 229, 6,7-dimethoxy-9-(6-(methylamino)pyridin-3-yl)naphtho[2,3-c]furan-1(3H)-one]	17.63	2.84 µM	> 50 µM	–
COc1cc2cc3c(c(-c4ccc(N(C)C(C)=O)nc4)c2cc1OC)C(=O)OC3 [Example 230, N-(5-(6,7-dimethoxy-3-oxo-1,3-dihydronaphtho[2,3-c]furan-4-yl)pyridin-2-yl)-N-methylacetamide]	2.45	20.4 µM	> 50 µM	–
COc1cc2cc3c(c(-c4ccc(N(C)c5nnc(C)o5)nc4)c2cc1OC)C(=O)OC3 [Example 231, 6,7-dimethoxy-9-(6-(methyl(5-methyl-1,3,4-oxadiazol-2-yl)amino)pyridin-3-yl)naphtho[2,3-c]furan-1(3H)-one]	1.00	> 50 µM	> 50 µM	–
COc1ccc(CN(C)c2ccc(-c3c4c(cc5cc(OC)c(OC)cc35)COC4=O)cn2)c(OC)c1.Cl [Example 232, 9-(6-((2,4-dimethoxybenzyl)(methyl)amino)pyridin-3-yl)-6,7-dimethoxynaphtho[2,3-c]furan-1(3H)-one]	15.36	–	> 50 µM	3.25 µM
COc1cc2cc3c(c(-c4ccc(N(C)C(=O)C(C)(C)C)nc4)c2cc1OC)C(=O)OC3 [Example 233, N-(5-(6,7-dimethoxy-3-oxo-1,3-dihydronaphtho[2,3-c]furan-4-yl)pyridin-2-yl)-N-methylpivalamide]	1.00	> 50 µM	> 50 µM	–
COc1cc2cc3c(c(-c4ccc(N(C)C(=O)c5ccc(Cl)nc5)nc4)c2cc1OC)C(=O)OC3.Cl [Example 234, 6-chloro-N-(5-(6,7-dimethoxy-3-oxo-1,3-dihydronaphtho[2,3-c]furan-4-yl)pyridin-2-yl)-N-methylnicotinamide]	1.00	–	> 50 µM	> 50 µM
COc1cc2cc3c(c(-c4ccc(N(C)C(=O)N5CCOCC5)nc4)c2cc1OC)C(=O)OC3 [Example 235, N-(5-(6,7-dimethoxy-3-oxo-1,3-dihydronaphtho[2,3-c]furan-4-yl)pyridin-2-yl)-N-methylmorpholin-4-carboxamide]	1.00	> 50 µM	> 50 µM	–
COc1cc2cc3c(c(-c4ccc(N(C)c5ccc(N(C)C(C)=O)cc5)nc4)c2cc1OC)C(=O)OC3.Cl [Example 236, N-(4-((5-(6,7-dimethoxy-3-oxo-1,3-dihydronaphtho[2,3-c]furan-4-yl)pyridin-2-yl)(methyl)amino)phenyl)-N-methylacetamide]	30.25	–	> 50 µM	1.65 µM
COc1cc2cc3c(c(-c4ccc(N5CCC(N(C)C)CC5)nc4)c2cc1OC)C(=O)OC3.Cl [Example 238, 9-(6-(4-(dimethylamino)piperidin-1-yl)pyridin-3-yl)-6,7-dimethoxynaphtho[2,3-c]furan-1(3H)-one]	2.84	–	> 50 µM	17.6 µM
COc1cc2cc3c(c(-c4ccc(N(C)c5ccc(S)cc5)nc4)c2cc1OC)C(=O)OC3.Cl [Example 239, 9-(6-((4-mercaptophenyl)(methyl)amino)pyridin-3-yl)-6,7-dimethoxynaphtho[2,3-c]furan-1(3H)-one]	1.00	–	> 50 µM	> 50 µM
COc1cc2cc3c(c(-c4ccc(N5CCn6c(nnc6C(F)(F)F)C5)nc4)c2cc1OC)C(=O)OC3 [Example 240, 6,7-dimethoxy-9-(6-(3-(trifluoromethyl)-5,6-dihydro-[1,2,4]triazolo[4,3-a]pyrazin-7 (8H)-yl)pyridin-3-yl)naphtho[2,3-c]furan-1(3H)-one]	1.00	> 50 µM	> 50 µM	–
COc1cc2cc3c(c(-c4ccc(N(C)c5nn(C)cc5C#N)nc4)c2cc1OC)C(=O)OC3.Cl [Example 241, 3-((5-(6,7-dimethoxy-3-oxo-1,3-dihydronaphtho[2,3-c]furan-4-yl)pyridin-2-yl)(methyl)amino)-1-methyl-1H-pyrazol-4-carbonitrile]	1.00	–	> 50 µM	> 50 µM
COc1cc2cc3c(c(-c4ccc(N5CCCCC5)cc4)c2cc1OC)C(=O)OC3 [Example 242, 6,7-dimethoxy-9-(4-(piperidin-1-yl)phenyl)naphtho[2,3-c]furan-1(3H)-one]	5.45	1.94 µM	10.6 µM	–
COc1cc2cc3c(c(-c4cccc(N5CCCCC5)c4)c2cc1OC)C(=O)OC3 [Example 243, 6,7-dimethoxy-9-(3-(piperidin-1-yl)phenyl)naphtho[2,3-c]furan-1(3H)-one]	3.26	15.3 µM	> 50 µM	–
COc1cc2cc3c(c(-c4cccc(N5CCOCC5)c4)c2cc1OC)C(=O)OC3 [Example 244, 6,7-dimethoxy-9-(3-morpholinophenyl)naphtho[2,3-c]furan-1(3H)-one]	1.00	> 50 µM	> 50 µM	–
